Test results published in US10195196B2, “1,4-disubstituted pyridazine analogs there of and methods for treating SMN-deficiency-related conditions” (NOVARTIS AG, priority 2012, dated 2019).

Tested on: SMN protein
Assay: cellular SMN ELISA (SMN protein elevation)
Assay type: cell-based
Details: myoblast cell line from SMNdelta7 mouse model, 24 hours treatment; for SMN activity Fold: fold activation over DMSO control
Method: A cellular SMN ELISA was used to measure the effects of low molecular weight compounds on SMN protein elevation. Cells from a myoblast cell line derived from the SMNdelta7 mouse model (kind gift from Steve Burden, NYU) were seeded into a 384-well plate at a density of 3000 cells/well and treated with compounds for 24 hours. ELISA capture plates were prepared by coating 384-well plates (Immulon 4HBX) with 0.5 ug/mL of anti-SMN mAb (BD Science, Catalog number 610647) at 4° C. overnight. The plates were washed 5 times with 110 uL of PBS-Tween (0.05% Tween-20, PBST), blocked with 100 uL of 1% BSA in PBST for 2 hours and washed (5 times) with 100 uL of PBST. After 24 hours of compound treatment cells were lysed in a modified RIPA-buffer, on ice for 1 hour. 20 uL of lysate and 20 uL of 1% BSA were then added to the ELISA capture plates and incubated at 4° C. overnight. Plates were washed (5 times) with PBST and then incubated with 1:100 dilution of primary rabbit anti-SMN polyclonal antibody (Santa cruz, Catalog number SC-15320) at room temperature for 1 hour and subsequently washed (5 times) with 110 uL of PBST. This was followed by addition of 1:100 Goat anti-Rabbit IgG-HRP linked (Cell Signaling, Catalog number 7074) secondary antibody for 1 hour. Plates were then washed with PBST and incubated with 40 uL TMB substrate (Cell Signaling, Catalog number 7004L) at room temperature for 1-10 minutes with shaking. The reaction was stopped by addition of 40 uL of stop solution (Cell signaling, Catalog number 7002L) and absorption was measured at 450 nm. Data was reported as fold activation over DMSO control, and EC50.
ELISA assay condition 1: compound concentration range 20 nM-10 uM; ELISA assay condition 2: compound concentration 100 pM-10 uM.

[1] = ELISA condition 2: compound concentration 100 pM-10 uM
[2] = ELISA condition 1: compound concentration range 20 nM-10 uM

SMILES | EC50 [1] [nM] | SMN activity Fold [1] [Fold] | EC50 [2] [nM] | SMN activity Fold [2] [Fold]
CC1CC(Oc2ccc(-c3ccc(-n4cccn4)cc3O)nn2)CC(C)N1 (single isomer, unassigned) [Example 17-4, 2-(6-((2,6-Dimethylpiperidin-4-yl)oxy)pyridazin-3-yl)-5-(1H-pyrazol-1-yl)phenol] | 92 | 3.25 |  | 
Oc1cc(-n2cccn2)ccc1-c1ccc(N2C[C@H]3CNC[C@H]3C2)nn1 [Example 18-17, 2-(6-((3aR,6aS)-hexahydropyrrolo[3,4-c]pyrrol-2(1H)-yl)pyridazin-3-yl)-5-(1H-pyrazol-1-yl)phenol] | 158 | 2.85 |  | 
CN(c1ccc(-c2ccc(-c3cnc4cnccn34)cc2O)nn1)C1CC(C)(C)NC(C)(C)C1 [Example 42-3, 5-(imidazo[1,2-a]pyrazin-3-yl)-2-(6-(methyl(2,2,6,6-tetramethylpiperidin-4-yl)amino)pyridazin-3-yl)phenol] | 99 | 2.92 |  | 
CN(c1ccc(-c2cc(-c3cnn4c3CCCC4)ccc2O)nn1)C1CC(C)(C)NC(C)(C)C1 [Example 32-2, 2-(6-(methyl(2,2,6,6-tetramethylpiperidin-4-yl)amino)pyridazin-3-yl)-4-(4,5,6,7-tetrahydropyrazolo[1,5-a]pyridin-3-yl)phenol] | 396 | 2.49 |  | 
Cc1nc2ccc(-c3ccc(NC4CC(C)(C)NC(C)(C)C4)nn3)cc2o1 [Example 2-3, 6-(2-methylbenzo-[d]oxazol-6-yl)-N-(2,2,6,6-tetramethyl-piperidin-4-yl)pyridazin-3-amine] |  |  | 1200 | 2.46
Cc1nc(-c2ccc(-c3ccc(N(C)C4CC(C)(C)NC(C)(C)C4)nn3)c(O)c2)c[nH]1 [Example 42-9, 2-(6-(methyl(2,2,6,6-tetramethylpiperidin-4-yl)amino)pyridazin-3-yl)-5-(2-methyl-1H-imidazol-4-yl)phenol] | 15 | 2.85 |  | 
CN(c1ccc(-c2cc3ccc(O)c(Cl)c3cc2O)nn1)C1CC(C)(C)NC(C)(C)C1 [Example 24-5, 1-chloro-6-(6-(methyl(2,2,6,6-tetramethylpiperidin-4-yl)amino)pyridazin-3-yl)naphthalene-2,7-diol] | 47 | 2.99 |  | 
OCCN1CCN(c2ccc(-c3ccc(-n4cccn4)cc3O)nn2)CC1 [Example 18-7, 2-{6-[4-(2-hydroxy-ethyl)-piperazin-1-yl]-pyridazin-3-yl}-5-pyrazol-1-yl-phenol] | 2660 | 2.67 |  | 
CN1CCC2(CCN(c3ccc(-c4ccc(-n5cccn5)cc4O)nn3)C2)C1 (stereo not drawn) [Example 18-5, 2-[6-(7-methyl-2,7-diaza-spiro[4.4]non-2-yl)-pyridazin-3-yl]-5-pyrazol-1-yl-phenol] | 151 | 2.66 |  | 
CN(c1ccc(-c2ccc(-n3ccnc3)cc2O)nn1)C1CC(C)(C)NC(C)(C)C1 [Example 12-1, 5-(1H-imidazole-1-yl)-2-(6-(methyl(2,2,6,6-tetramethyl-piperidin-4-yl)amino)pyridazin-3-yl)phenol] | 4 | 3.13 |  | 
Oc1cc(-n2cccn2)ccc1-c1ccc(N2CCNCC2)nn1 [Example 18-1, 2-(6-piperazin-1-yl-pyridazin-3-yl)-5-pyrazol-1-yl-phenol] | 296 | 3.07 |  | 
CN(c1ccc(-c2cc3c(cc2O)-c2[nH]ncc2C3)nn1)C1CC(C)(C)NC(C)(C)C1 [Example 35-2, 6-(6-(methyl(2,2,6,6-tetramethylpiperidin-4-yl)amino)pyridazin-3-yl)-1,4-dihydroindeno[1,2-c]pyrazol-7-ol] | 10 | 2.84 |  | 
CN(c1ccc(-c2ccc(Cl)cc2O)nn1)C1CC(C)(C)N(C)C(C)(C)C1 [Example 3-2, 5-chloro-2-(6-(methyl(1,2,2,6,6-pentamethylpiperidin-4-yl)amino)pyridazin-3-yl)phenol] |  |  | 1070 | 2.06
CN(c1ccc(-c2cc3ccc(CN4CCCCC4)cc3cc2O)nn1)C1CC(C)(C)NC(C)(C)C1 [Example 24-2, 3-(6-(methyl(2,2,6,6-tetramethylpiperidin-4-yl)amino)pyridazin-3-yl)-7-(piperidin-1-ylmethyl)naphthalen-2-ol] | 157 | 2.33 |  | 
CN1C[C@@H]2CN(c3ccc(-c4ccc(-c5ccn(C)c(=O)c5)cc4O)nn3)C[C@@H]2C1 [Example 43-4, 4-(3-hydroxy-4-(6-(5-methylhexahydropyrrolo[3,4-c]pyrrol-2(1H)-yl)pyridazin-3-yl)phenyl)-1-methylpyridin-2(1H)-one] | 41 | 2.94 |  | 
CN(c1ccc(-c2ccc(C3=CCCC3)cc2O)nn1)C1CC(C)(C)NC(C)(C)C1 [Example 41-16, 5-(cyclopent-1-en-1-yl)-2-(6-(methyl(2,2,6,6-tetramethylpiperidin-4-yl)amino)pyridazin-3-yl)phenol] | 62 | 2.30 |  | 
CN1CC=C(c2ccc(-c3cc4ccc(O)cc4cc3O)nn2)CC1 [Example 19-6, 3-(6-(1-methyl-1,2,3,6-tetrahydropyridin-4-yl)pyridazin-3-yl)naphthalene-2,7-diol] | 40 | 2.33 |  | 
CN(c1ccc(-c2cc(-c3ccn[nH]3)c(F)cc2O)nn1)C1CC(C)(C)NC(C)(C)C1 [Example 34-5, 5-fluoro-2-(6-(methyl(2,2,6,6-tetramethylpiperidin-4-yl)amino)pyridazin-3-yl)-4-(1H-pyrazol-5-yl)phenol] | 56 | 2.75 |  | 
COc1cc(-c2cc(O)c(-c3ccc(N(C)C4CC(C)(C)NC(C)(C)C4)nn3)c(F)c2)ccn1 [Example 40-1, 3-fluoro-5-(2-methoxypyridin-4-yl)-2-(6-(methyl(2,2,6,6-tetramethylpiperidin-4-yl)amino)pyridazin-3-yl)phenol] | 79 | 2.58 |  | 
C=CCNC(=O)c1ccc(-c2ccc(N(C)C3CC(C)(C)NC(C)(C)C3)nn2)c(O)c1 [Example 8-1, N-allyl-3-hydroxy-4-(6-(methyl(2,2,6,6-tetramethylpiperidin-4-yl)amino)pyridazin-3-yl)benzamide] |  |  | 280 | 2.72
C=CCc1c(O)ccc2cc(-c3ccc(N(C)C4CC(C)(C)NC(C)(C)C4)nn3)ccc12 [Example 6-1, 1-allyl-6-(6-(methyl(2,2,6,6-tetramethylpiperidin-4-yl)amino)pyridazin-3-yl)naphthalen-2-ol] | 630 | 2.04 |  | 
CN(c1ccc(-c2cc3ccc(C#N)cc3cc2O)nn1)C1CC(C)(C)NC(C)(C)C1 [Example 24-1, 7-hydroxy-6-(6-(methyl(2,2,6,6-tetramethylpiperidin-4-yl)amino)pyridazin-3-yl)-2-naphthonitrile] | 16 | 3.14 |  | 
CN(C)C1CCCN(c2ccc(-c3ccc(-n4cccn4)cc3O)nn2)C1 (stereo not drawn) [Example 18-13, 2-[6-(3-dimethyl-amino-piperidin-1-yl)-pyridazin-3-yl]-5-pyrazol-1-yl-phenol] | 1240 | 2.28 |  | 
CN(c1ccc(-c2cc3ccc(C4=CCOCC4)cc3cc2O)nn1)C1CC(C)(C)NC(C)(C)C1 [Example 24-8, 7-(3,6-dihydro-2H-pyran-4-yl)-3-(6-(methyl(2,2,6,6-tetramethylpiperidin-4-yl)amino)pyridazin-3-yl)naphthalen-2-ol] | 7 | 2.39 |  | 
Cc1c[nH]c(-c2ccc(-c3ccc(N(C)C4CC(C)(C)NC(C)(C)C4)nn3)c(O)c2)n1 [Example 42-5, 2-(6-(methyl(2,2,6,6-tetramethylpiperidin-4-yl)amino)pyridazin-3-yl)-5-(4-methyl-1H-imidazol-2-yl)phenol] | 202 | 3.22 |  | 
CN(c1ccc(-c2cc(C(=O)NCc3cnn(C)c3)ccc2O)nn1)C1CC(C)(C)NC(C)(C)C1 [Example 36-1, 4-hydroxy-3-(6-(methyl(2,2,6,6-tetramethylpiperidin-4-yl)amino)pyridazin-3-yl)-N-((1-methyl-1H-pyrazol-4-yl)methyl)benzamide] | 652 | 2.04 |  | 
CN(c1ccc(-c2ccc(-n3cc(C(N)=O)cn3)cc2O)nn1)C1CC(C)(C)NC(C)(C)C1 [Example 42-11, 1-(3-hydroxy-4-(6-(methyl(2,2,6,6-tetramethylpiperidin-4-yl)amino)pyridazin-3-yl)phenyl)-1H-pyrazole-4-carboxamide] | 239 | 3.37 |  | 
